Earlier results as cited in patent US20170189402A1, “SOLID DOSAGE FORMS” (AbbVie Inc., priority 2012, published 2017).

Experiments:
[1] = administered orally

| Compound | bioavailability [1] | solubility |
| --- | --- | --- |
| Nc1ccn([C@@H]2CS[C@H](CO)O2)c(=O)n1 [Lamivudine] | over 80% | – |
| Cc1cccc(C)c1OCC(=O)N[C@@H](Cc1ccccc1)[C@@H](O)C[C@H](Cc1ccccc1)NC(=O)[C@H](C(C)C)N1CCCNC1=O [lopinavir] | – | poorly soluble |
